Assay results as given in patent EP0983275B1, “NOVEL TRIPTOLIDE DERIVATIVES USEFUL IN THE TREATMENT OF AUTOIMMUNE DISEASES” (priority 1997, dated 1998).
≈ marks a conversion by molar mass, not a printed value.

Key:
[1] = test system: IL-2 production; assay: Interleukin-2 assay (IL-2 production by ELISA after PHA/TPA stimulation); format: cell-based; details: Jurkat E6-1 cells or human lymphocytes stimulated with PHA 10 µg/mL and 10^-8 M TPA; 16-24 hours
Method: (§1) Jurkat E6-1 cell line (ATCC), a human leukemic T cell line or lymphocytes prepared from fresh human blood, are grown in complete culture medium consisting of RPMI-1640 (Mediatech) supplemented with 10% v/v fetal bovine serum (HyClone, Logen, Vermont), penicillin (100 units/mL), streptomycin ([…]), and 2mM L-glutamine (GIBCO, Grand Island, New York). The cells are grown to a concentration of between 1.2 to 1.8 X 10^6 cells/mL before use. The cells are then centrifuged at low speed and resuspended to a concentration of 1.25 X 10^6 cells/mL in fresh medium.
(§2) The compounds to be tested are dissolved in DMSO, and water is added to make a 50% DMSO/water solution. The compounds are then diluted in sterile water such that the DMSO concentrations are less then 0.05%. The cells at a concentration of 1.25 X 10^6 cells/mL are stimulated with phytohemagglutinin 10 µg/mL (PHA) and 10^-8 M phorbol ester (12-O-tetradecanoylphorbol 13-acetate: TPA), (Sigma, St. Louis, Missouri). The compounds are then added and the cells are plated in flat-bottom tissue culture plates (Falcon, Lincoln Park, New Jersey), with 250,000 cells/well. Plates are then incubated at 37°C in a 5% CO2 atmosphere.
(§3) After incubation (16-24 hours), the cells are assayed for IL-2 production and cell viability (MTT). IL-2 production is assayed utilizing a solid phase ELISA immunoassay, sold in kit form by R&D Systems, Inc., Minneapolis, Minnesota.

[2] = Body weight change (weight gain) in the rat model of adjuvant-induced arthritis; format: in vivo, Male Wistar-Lewis rats; details: 10 mg/kg/day i.p.; weight gain between day 1 and day 21
Method: (§4) Following generally the procedure of Pearson and Wood, Arth. Rheum., 2, 44 (1959), the anti-inflammatory activity of the following compounds was determined in a rat model of adjuvant-induced arthritis. Male Wistar-Lewis rats (Mollegaard, Breeding Centre Ltd, BIBY, DK 4623 LI, SKENSVED, P.P. Box 28, DK) with a body weight between 160 g and 200 g are used. Freund's adjuvant (0.1 mL, 6 mg Mycobacterium smegmatis suspension per mL in heavy white paraffin oil, Merck/Darmstadt) was injected into the base of the tail. Between day 10 and day 14 of the test, immunopathological processes let to chronic inflammation, especially in the form of arthritic and periarthritic symptoms in all parts of the body. The animals received standardized food Altromin-R (Altrogge, Lage) and had free access to water. The compounds were administered i.p. (a suspension in carboxymethyl cellulose solution in an injection volume of 0.5 mL/100 g body weight) on 12 consecutive days, starting with the day of the adjuvant injection. On day 1 and day 18 of the study, the volume of both hind paws and the body weight were recorded, and in addition on day 18 the arthritis index. Cyclosporin A and Prednisolone were used as standard compounds. In addition, table IV presents the percent change in body weight (weight gain) between day 1 and day 21 of the above test.

[3] = test system: Jurkat E6-1 cell line; assay: Cell viability (MTT mitochondrial enzyme assay); format: cell-based, human; details: cells of the IL-2 assay after removal of supernatant, MTT 4 hours at 37°C
Method: as §1, §2, §3
Cell viability is measured by the use of a mitochondrial enzyme assay. After removal of the supernatant for the IL-2 assay, Cell Titer 96 (a commercial solution of MTT obtained from Promega, Madison, Wisconsin), is added to the plates and incubated for 4 hours at 37°C. A solubilization solution is then added and incubated overnight. The plates are then read on an ELISA plate reader at a wavelength of 570 nm. Table II presents the results for the Interleukin-2 assay, the cell viability assay and the ratio of cell viability/IL-2 inhibition.

[4] = test system: adjuvant-induced arthritis; assay: Anti-inflammatory activity in the rat model of adjuvant-induced arthritis; format: in vivo, Male Wistar-Lewis rats; details: 12 consecutive days
Method: as §4, with “Between day 10 and day 14 of the test, immunopathological processes let to chronic inflammation, especially in the form of arthritic and periarthritic symptoms in all parts of the body.” left out, “index.” for “index. Cyclosporin A and Prednisolone were used as standard compounds. In addition, table IV presents the percent change in body weight (weight gain) between day 1 and day 21 of the above test.”

CC(C)C12OC1C1OC13C1(C)CCC4=C(COC4=O)C1CCC3(O)C2O (stereo not drawn) [Example 1, [5aR-(5aα,6α,6aα,7aα,7bβ,8aS*,8bα)]-3,3b,4,5,5a,6,6a,7a,7b,8b,9,10-dodecahydro-5a,6-dihydroxy-8b-methyl-6a-(1-methylethyl)-1H-bisoxireno[4b,5:6,7]phenanthro[1,2-c]furan-1-one]
IC50/IL-2 [1]: 0.036 µg/mL (≈ 0.0993 µM) | % Change in Body Weight [2]: 29.9% | IC50/MTT [3]: 0.3 to 0.5 µg/mL | % Inhibition ([4]; 10 mg/kg/day i.p.): 90%

[1S-(1α,2β,3α,3aβ,4aR*,4bα,11aα)]-3-chloro-1,2,3,3a,4b,5,6,9,9b,10,11,11a-dodecahydro-1,2,11a-trihydroxy-4b-methyl-2-(1-methylethyl)-7H-oxireno[4b,5]phenanthro[1,2-c]furan-7-one [Example 2]
IC50/IL-2 [1]: 0.06 µg/mL | IC50/MTT [3]: 0.55 µg/mL

CC(C)[C@]12O[C@H]1[C@@H]1O[C@]13[C@]1(O[C@H]1C[C@H]1C4=C(CC[C@@]13C)C(=O)OC4)[C@@H]2O [Triptolide]
IC50 [1]: 0.001 to 0.003 µg/mL (≈ 0.00277 to 0.00832 µM) | IC50 ([3]; Homo sapiens, Jurkat E6.1): 0.005 µg/mL (≈ 0.0139 µM) | % Inhibition ([4]; 0.2 mg/kg/day i.p.): 70% | % Inhibition ([4]; 0.4 mg/kg/day i.p.): 85% | % Inhibition ([4]; 0.8 mg/kg/day i.p.): 76%

C[C@]12C=CC(=O)C=C1CC[C@@H]1[C@@H]2[C@@H](O)C[C@@]2(C)[C@H]1CC[C@]2(O)C(=O)CO [Prednisolone]
% Inhibition ([4]; 15 mg/kg/day i.p.): 100%
